Measured values taken from the supplement of paper PMC12282887.

Tests used:
Assay in all cases: fitness (OD AUC treated / untreated) (fraction); higher = more growth
[1] = test system: E. coli BW25113 Drob + rob
Description: (§1)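 MIC curves of ciprofloxacin or amoxicillin, with or without 55.5 µg/ml caffeine, against E. coli BW25113 wild type, deletion mutants (ΔmicF, ΔompF, Δrob) and complemented strains. Assays ran in LB at 37°C in 96/384-well plates. Fitness is the OD600 AUC over 8 h divided by the no-drug control; 3-4 biological replicates.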

E. coli BW25113 Drob = test system: E. coli BW25113 Drob
Description: as §1

E. coli BW25113 WT = test system: E. coli BW25113 WT
Description: as §1

[2] = test system: E. coli BW25113 DmicF + micF
Description: as §1

E. coli BW25113 DmicF = test system: E. coli BW25113 DmicF
Description: as §1

[3] = test system: E. coli BW25113 DompF + ompF
Description: as §1

CC1(C)S[C@@H]2[C@H](NC(=O)[C@H](N)c3ccc(O)cc3)C(=O)N2[C@H]1C(=O)O [Amoxicillin]
fitness
Settings	E. coli BW25113 Drob	E. coli BW25113 WT	[1]
antibiotic concentration 0.72727 µg/ml, caffeine concentration 0 µg/ml	1.06	1.02	1.04
antibiotic concentration 0.72727 µg/ml, caffeine concentration 55.4857 µg/ml	0.954	0.986	0.988
antibiotic concentration 1.45455 µg/ml, caffeine concentration 0 µg/ml	1.067	1.03	1.098
antibiotic concentration 1.45455 µg/ml, caffeine concentration 55.4857 µg/ml	0.96	0.995	1.013
antibiotic concentration 2.18182 µg/ml, caffeine concentration 0 µg/ml	0.956	1.01	1.06
antibiotic concentration 2.18182 µg/ml, caffeine concentration 55.4857 µg/ml	0.8209	1.02	1
antibiotic concentration 2.90909 µg/ml, caffeine concentration 0 µg/ml	0.233	0.791	0.381
antibiotic concentration 2.90909 µg/ml, caffeine concentration 55.4857 µg/ml	0.207	1.07	0.976
antibiotic concentration 3.63636 µg/ml, caffeine concentration 0 µg/ml	0.107	0.246	0.156
antibiotic concentration 3.63636 µg/ml, caffeine concentration 55.4857 µg/ml	0.0967	0.971	0.653
antibiotic concentration 4.36364 µg/ml, caffeine concentration 0 µg/ml	0.0398	0.114	0.0865
antibiotic concentration 4.36364 µg/ml, caffeine concentration 55.4857 µg/ml	0.0126	0.637	0.219
antibiotic concentration 5.09091 µg/ml, caffeine concentration 0 µg/ml	4.88e-05	0.0723	0.0167
antibiotic concentration 5.09091 µg/ml, caffeine concentration 55.4857 µg/ml	0.000488	0.251	0.113
antibiotic concentration 5.81818 µg/ml, caffeine concentration 0 µg/ml	0	0.0283	0
antibiotic concentration 5.81818 µg/ml, caffeine concentration 55.4857 µg/ml	0	0.133	0.0601
antibiotic concentration 6.54545 µg/ml, caffeine concentration 0 µg/ml	0	0	0
antibiotic concentration 6.54545 µg/ml, caffeine concentration 55.4857 µg/ml	0	0.0838	0.00196
antibiotic concentration 7.27273 µg/ml, caffeine concentration 0 µg/ml	0	0	0
antibiotic concentration 7.27273 µg/ml, caffeine concentration 55.4857 µg/ml	0.000488	0.0273	0
antibiotic concentration 8 µg/ml, caffeine concentration 0 µg/ml	0	0	0
antibiotic concentration 8 µg/ml, caffeine concentration 55.4857 µg/ml	0	0.00395	0.000108

O=C(O)c1cn(C2CC2)c2cc(N3CCNCC3)c(F)cc2c1=O [Ciprofloxacin]
fitness
Settings	E. coli BW25113 DmicF	E. coli BW25113 Drob	E. coli BW25113 WT	[2]	[3]
antibiotic concentration 0.00227 µg/ml, caffeine concentration 0 µg/ml	0.916	1.07	1.07	1.05	–
antibiotic concentration 0.00227 µg/ml, caffeine concentration 55.4857 µg/ml	0.927	0.883	0.995	–	–
antibiotic concentration 0.00455 µg/ml, caffeine concentration 0 µg/ml	0.793	0.845	0.987	1.01	–
antibiotic concentration 0.00455 µg/ml, caffeine concentration 55.4857 µg/ml	0.867	0.887	0.986	–	–
antibiotic concentration 0.00682 µg/ml, caffeine concentration 0 µg/ml	0.625	0.754	0.99	0.985	–
antibiotic concentration 0.00682 µg/ml, caffeine concentration 55.4857 µg/ml	0.684	0.733	1	0.99	–
antibiotic concentration 0.00909 µg/ml, caffeine concentration 0 µg/ml	0.435	0.641	0.891	0.876	–
antibiotic concentration 0.00909 µg/ml, caffeine concentration 55.4857 µg/ml	–	0.619	0.953	0.941	–
antibiotic concentration 0.01136 µg/ml, caffeine concentration 0 µg/ml	0.232	0.42	0.766	0.679	–
antibiotic concentration 0.01136 µg/ml, caffeine concentration 55.4857 µg/ml	–	0.383	0.938	0.798	–
antibiotic concentration 0.01364 µg/ml, caffeine concentration 0 µg/ml	0.153	0.266	0.58	0.381	0.748
antibiotic concentration 0.01364 µg/ml, caffeine concentration 55.4857 µg/ml	–	0.199	0.82	0.571	0.89
antibiotic concentration 0.01591 µg/ml, caffeine concentration 0 µg/ml	0.0556	0.143	0.448	0.154	–
antibiotic concentration 0.01591 µg/ml, caffeine concentration 55.4857 µg/ml	–	0.114	0.728	0.329	–
antibiotic concentration 0.01818 µg/ml, caffeine concentration 0 µg/ml	0.017	0.0644	0.304	0.0704	–
antibiotic concentration 0.01818 µg/ml, caffeine concentration 55.4857 µg/ml	–	0.0408	0.607	0.207	–
antibiotic concentration 0.02045 µg/ml, caffeine concentration 0 µg/ml	0.0088	0.0847	0.192	0.0466	0.541
antibiotic concentration 0.02045 µg/ml, caffeine concentration 55.4857 µg/ml	–	0.0665	0.482	0.119	0.771
antibiotic concentration 0.02273 µg/ml, caffeine concentration 0 µg/ml	0.00491	0.0851	0.101	0.045	–
antibiotic concentration 0.02273 µg/ml, caffeine concentration 55.4857 µg/ml	0.00595	0.0576	0.374	0.0506	–
antibiotic concentration 0.025 µg/ml, caffeine concentration 0 µg/ml	0	0.0782	0.0921	0.0379	–
antibiotic concentration 0.025 µg/ml, caffeine concentration 55.4857 µg/ml	0	0.0414	0.276	0.0446	–
antibiotic concentration 0.02727 µg/ml, caffeine concentration 0 µg/ml	–	–	–	–	0.238
antibiotic concentration 0.02727 µg/ml, caffeine concentration 55.4857 µg/ml	–	–	–	–	0.558
antibiotic concentration 0.03409 µg/ml, caffeine concentration 0 µg/ml	–	–	–	–	0.0975
antibiotic concentration 0.03409 µg/ml, caffeine concentration 55.4857 µg/ml	–	–	–	–	0.359
antibiotic concentration 0.04091 µg/ml, caffeine concentration 0 µg/ml	–	–	–	–	0.039
antibiotic concentration 0.04091 µg/ml, caffeine concentration 55.4857 µg/ml	–	–	–	–	0.194
antibiotic concentration 0.04773 µg/ml, caffeine concentration 0 µg/ml	–	–	–	–	0.032
antibiotic concentration 0.04773 µg/ml, caffeine concentration 55.4857 µg/ml	–	–	–	–	0.102
antibiotic concentration 0.05455 µg/ml, caffeine concentration 0 µg/ml	–	–	–	–	0.0267
antibiotic concentration 0.05455 µg/ml, caffeine concentration 55.4857 µg/ml	–	–	–	–	0.0511
antibiotic concentration 0.06136 µg/ml, caffeine concentration 0 µg/ml	–	–	–	–	0.0262
antibiotic concentration 0.06136 µg/ml, caffeine concentration 55.4857 µg/ml	–	–	–	–	0.0404
antibiotic concentration 0.06818 µg/ml, caffeine concentration 0 µg/ml	–	–	–	–	0.0324
antibiotic concentration 0.06818 µg/ml, caffeine concentration 55.4857 µg/ml	–	–	–	–	0.0403
antibiotic concentration 0.075 µg/ml, caffeine concentration 0 µg/ml	–	–	–	–	0.0312
antibiotic concentration 0.075 µg/ml, caffeine concentration 55.4857 µg/ml	–	–	–	–	0.0317
